Experimental data reported in US12624050B2, “Three fused ring derivative-containing salt or crystal form and pharmaceutical composition thereof” (Shanghai Hansoh Biomedical Co., Ltd., priority 2019, dated 2026).

How the values were obtained:
[1] = PK studies in animals of salt crystal forms, intragastric 30 mg/kg; format: in vivo; conditions: 0.5% HPMC K4M suspension; for exposure in rats (in words): 30 mg/kg; for AUC(0-inf) / AUC(0-t) / Cmax / Tmax / half-life / MRT inf: rat, in vivo, po, rats, 30 mg/kg (as free compound); for MRT inf: read-out: MRT0-∞
Method: 7.2.1 Crystal form A of mesylate salt, crystal form D of sulfate salt and crystal form A of ethanesulfonate salt of (S)-2-((2-((R)-4-(difluoromethyl)-2-oxothiazolidin-3-yl)-5,6-dihydrobenzo[f]imidazo[1,2-d][1,4]oxazepin-9-yl)amino)propionamide were evenly suspended in an aqueous solution containing 0.5% HPMC (hydroxypropyl methylcellulose) K4M, and then intragastrically administered to rats in duplicate at a dose of 30 mg/kg. The amount of the compound was all converted into the amount of the same compound (S)-2-((2-((R)-4-(difluoromethyl)-2-oxothiazolidin-3-yl)-5,6-dihydrobenzo[f]imidazo[1,2-d][1,4]oxazepin-9-yl)amino)propionamide.

[2] = Polymorphic screening experiment; format: physicochemical; conditions: slurrying, changing solvent and crystallization mode
Method: Organic solvents and water with a certain solubility was chosen to suspend the compound in the solvent system, and the mixture was stirred and slurried at room temperature for 1 week, and then centrifuged. The supernatant was discarded, and the solid was dried in vacuum (−0.1 Mpa) at 40° C. overnight. Then the XRPD of the solid was measured and compared with the XRPD of salt of the compound.

[3] = Stability experiment of the solids (60°C, RH 95%, light), HPLC; format: physicochemical; conditions: light condition (5000 lx) for 10 days
Method: About 2 mg of crystal form A of mesylate salt, crystal form C of sulfate salt and crystal form A of ethanesulfonate salt of (S)-2-((2-((R)-4-(difluoromethyl)-2-oxothiazolidin-3-yl)-5,6-dihydrobenzo[f]imidazo[1,2-d][1,4]oxazepin-9-yl)amino)propionamide was placed in a sealed oven at 60° C., in an unsealed container at room temperature under RH 95% (saturated aqueous KNO3 solution) and in a light box (5000 lx±500 lx) and observed for 5 days and 10 days. The content of salt was determined by HPLC using the external standard method. Changes of related substance of salt in substances related to the salts were calculated by normalization of chromatography peak area.

[4] = Solubility experiment in different media, thermodynamic solubility at 37°C; format: physicochemical; conditions: for solubility after salt formation compared with the free compound: 37°C; for solubility at 24 h: thermodynamic from solid, thermodynamic solubility
Method: About 2 mg of crystal form A of ethanesulfonate salt of (S)-2-((2-((R)-4-(difluoromethyl)-2-oxothiazolidin-3-yl)-5,6-dihydrobenzo[f]imidazo[1,2-d][1,4]oxazepin-9-yl)amino)propionamide was suspended in different media for 24 hours.

[5] = Hygroscopicity experiment; format: physicochemical; conditions: for crystal form (XRPD pattern) after humidification and dehumidification: 1 cycle under 0 to 95% relative humidity; for hygroscopic weight gain / hygroscopicity (in words): RH 80%
Method: Crystal form A of mesylate salt, crystal form D of sulfate salt and crystal form A of ethanesulfonate salt of (S)-2-((2-((R)-4-(difluoromethyl)-2-oxothiazolidin-3-yl)-5,6-dihydrobenzo[f]imidazo[1,2-d][1,4]oxazepin-9-yl)amino)propionamide were placed in saturated water vapor with different relative humidity, so that the compound and water vapor reached a dynamic equilibrium, and the percentage of hygroscopic weight gain of the compound after the equilibrium was calculated.

CCS(=O)(=O)O.C[C@H](Nc1ccc2c(c1)OCCn1cc(N3C(=O)SC[C@H]3C(F)F)nc1-2)C(N)=O [crystal form A of ethanesulfonate salt, (S)-2-((2-((R)-4-(difluoromethyl)-2-oxothiazolidin-3-yl)-5,6-dihydrobenzo[f]imidazo[1,2-d][1,4]oxazepin-9-yl)amino)propionamide]
exposure in rats (in words) [1]: higher exposures
AUC(0-inf) [1]: 10400 ng·h/mL
AUC(0-t) [1]: 10000 ng·h/mL
Cmax [1]: 1460 ng/mL
Tmax [1]: 1 h
half-life [1]: 3.01 h
MRT inf [1]: 6.98 h
crystal form obtained in polymorphic screening [2]: in crystal form A was obtained
increase of new impurity compared with 0 days [3]: 0.134%
solubility after salt formation compared with the free compound ([4]; media of pH4 to 8 buffer): slightly lower solubility
solubility at 24 h ([4]; medium of pH 1, simulated gastric fluid, medium pH 1, 37° C.): 9370 µg/mL
solubility at 24 h ([4]; medium of pH 2, simulated gastric fluid, medium pH 2, 37° C.): 974 µg/mL
solubility at 24 h ([4]; medium of pH 3, aqueous buffer, medium pH 3, 37° C.): 268 µg/mL
solubility at 24 h ([4]; medium of pH 4, aqueous buffer, medium pH 4, 37° C.): 49 µg/mL
solubility at 24 h ([4]; medium of pH 5, aqueous buffer, medium pH 5, 37° C.): 20 µg/mL
solubility at 24 h ([4]; medium of pH 6, aqueous buffer, medium pH 6, 37° C.): 5 µg/mL
solubility at 24 h ([4]; medium of pH 7, aqueous buffer, medium pH 7, 37° C.): 12 µg/mL
solubility at 24 h ([4]; medium of pH 8, aqueous buffer, medium pH 8, 37° C.): 14 µg/mL
solubility after salt formation compared with the free compound ([4]; other media, most obviously in water): increased the solubility
solubility at 24 h ([4]; medium Fa (fasted-state simulated intestinal fluid, FaSSIF), 37° C.): 44 µg/mL
solubility at 24 h ([4]; medium Fe (fed-state simulated intestinal fluid, FeSSIF), 37° C.): 163 µg/mL
solubility at 24 h ([4]; medium SGF (simulated gastric fluid), 37° C.): 1150 µg/mL
solubility at 24 h ([4]; medium water, 37° C.): 608 µg/mL
crystal form (XRPD pattern) after humidification and dehumidification [5]: the crystal form did not change
hygroscopic weight gain [5]: 0.207%
hygroscopicity (in words) [5]: slight hygroscopicity

CS(=O)(=O)O.C[C@H](Nc1ccc2c(c1)OCCn1cc(N3C(=O)SC[C@H]3C(F)F)nc1-2)C(N)=O [crystal form A of mesylate salt, (S)-2-((2-((R)-4-(difluoromethyl)-2-oxothiazolidin-3-yl)-5,6-dihydrobenzo[f]imidazo[1,2-d][1,4]oxazepin-9-yl)amino)propionamide]
exposure in rats (in words) [1]: higher exposures
AUC(0-inf) [1]: 10200 ng·h/mL
AUC(0-t) [1]: 9840 ng·h/mL
Cmax [1]: 1180 ng/mL
Tmax [1]: 1 h
half-life [1]: 3.54 h
MRT inf [1]: 6.52 h
increase of new impurity compared with 0 days [3]: 0.523%
crystal form (XRPD pattern) after humidification and dehumidification [5]: the crystal form changed
hygroscopic weight gain [5]: 3.6%
hygroscopicity (in words) [5]: had hygroscopicity

C[C@H](Nc1ccc2c(c1)OCCn1cc(N3C(=O)SC[C@H]3C(F)F)nc1-2)C(N)=O.O=S(=O)(O)O [crystal form C of sulfate salt, (S)-2-((2-((R)-4-(difluoromethyl)-2-oxothiazolidin-3-yl)-5,6-dihydrobenzo[f]imidazo[1,2-d][1,4]oxazepin-9-yl)amino)propionamide]
increase of new impurity compared with 0 days [3]: 0.172%
